Columns and labels:
p70S6K (T412E mutant) = p70S6K (T412E mutant) (Homo sapiens (Human), UniProt P23443, T412E); assay: p70S6K enzyme assay; format: biochemical
Experimental: p70S6K inhibitor compounds were diluted and plated in 96 well plates. A reaction mixture including the following components were then added to the compound plate to initiate the enzyme reaction: p70S6K (3 nM, T412E mutant, Millipore) was mixed with 24 μM ATP in an assay buffer containing 100 mM Hepes (pH 7.5), 5 mM MgCl2, 1 mM DTT, 0.015% Brij and 1 μM of the substrate peptide FITC-AHA-[…]-OH (derived from the S6 ribosomal protein sequence, FITC=fluorescein isothiocyanate, AHA=6-aminohexanoic acid). The reaction was incubated for 90 min at 25° C., before the addition of 10 mM EDTA to stop the reaction. The proportion of substrate and product (phosphorylated) peptide was analyzed on a Caliper Life Sciences Lab Chip 3000, using a pressure of −1.4 psi, and upstream and downstream voltages of −3000 and −700, respectively. Product peaks were resolved before substrate peaks on the resulting chromatograms. To assess the inhibitory potential of the compounds, IC50 values were determined, as shown above.

His-AKT (Full Length) = His-AKT (Full Length) (Homo sapiens (Human), UniProt P31749); assay: AKT/PKB kinase assay; format: biochemical
Experimental: In order to measure AKT inhibition in the Caliper Life Sciences LC3000, a TTP Mosquito liquid handling instrument was used to place 125 nl of the appropriate concentration of inhibitor in 100% DMSO (for a dose response curve calculation) into each well of a 384-well plate. To this reaction, the following components were added to a final volume of 12.5 μl: • 0.1 ng/μl His-AKT (Full Length) (Invitrogen, Part # P2999, Lot #641228C); • 160 μM ATP (Fluka, 02055); • 1 mM DTT (Sigma, D0632); • 1 mM MgCl2 (Sigma, M1028); • 1 μM substrate peptide (sequence FITC-AHA-[…]-NH2), synthesized by • Tufts Peptide Synthesis service; • 100 mM HEPES pH 7.5 (Calbiochem, 391338); and • 0.015% Brij-35 (Sigma, B4184).
The reaction was incubated for 90 min at 25° C., and then stopped by the addition of 70 μl of Stop buffer (100 mM HEPES pH 7.5, 0.015% Brij-35, 10 mM EDTA (Sigma, E7889)). The plate was read on a Caliper LC 3000 in an Off-Chip mobility shift assay format, using the following parameters for a 12-sipper chip: screening pressure −2.3 psi, upstream voltage −500, and downstream voltage −3000. These conditions cause unphosphorylated substrate and phosphorylated product peptide to resolve as separate peaks allowing direct measurement of percentage of conversion of substrate to product. The percent conversion was plotted against concentration of inhibitor to produce a sigmoidal dose response curve, from which an IC50 was calculated.

[1] = 24 μM ATP, 90 min at 25° C., Caliper mobility shift
[2] = 160 μM ATP, 90 min at 25° C., Caliper mobility shift
[3] = value printed in the synthesis paragraph

His-AKT (Full Length), sequence (P31749 whole entry): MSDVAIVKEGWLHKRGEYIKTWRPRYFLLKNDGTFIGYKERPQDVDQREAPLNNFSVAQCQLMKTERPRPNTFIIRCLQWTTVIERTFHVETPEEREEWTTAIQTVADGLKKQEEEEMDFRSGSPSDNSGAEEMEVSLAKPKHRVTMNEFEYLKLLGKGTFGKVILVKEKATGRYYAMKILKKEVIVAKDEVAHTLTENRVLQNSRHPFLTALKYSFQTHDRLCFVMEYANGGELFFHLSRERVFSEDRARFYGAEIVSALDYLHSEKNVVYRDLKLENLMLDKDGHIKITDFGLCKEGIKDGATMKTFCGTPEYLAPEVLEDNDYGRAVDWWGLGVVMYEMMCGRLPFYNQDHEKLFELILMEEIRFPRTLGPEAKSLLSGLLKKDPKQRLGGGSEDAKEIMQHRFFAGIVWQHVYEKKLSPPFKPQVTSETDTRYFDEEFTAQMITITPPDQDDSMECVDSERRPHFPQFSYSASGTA
p70S6K (T412E mutant), sequence (P23443 whole entry T412E): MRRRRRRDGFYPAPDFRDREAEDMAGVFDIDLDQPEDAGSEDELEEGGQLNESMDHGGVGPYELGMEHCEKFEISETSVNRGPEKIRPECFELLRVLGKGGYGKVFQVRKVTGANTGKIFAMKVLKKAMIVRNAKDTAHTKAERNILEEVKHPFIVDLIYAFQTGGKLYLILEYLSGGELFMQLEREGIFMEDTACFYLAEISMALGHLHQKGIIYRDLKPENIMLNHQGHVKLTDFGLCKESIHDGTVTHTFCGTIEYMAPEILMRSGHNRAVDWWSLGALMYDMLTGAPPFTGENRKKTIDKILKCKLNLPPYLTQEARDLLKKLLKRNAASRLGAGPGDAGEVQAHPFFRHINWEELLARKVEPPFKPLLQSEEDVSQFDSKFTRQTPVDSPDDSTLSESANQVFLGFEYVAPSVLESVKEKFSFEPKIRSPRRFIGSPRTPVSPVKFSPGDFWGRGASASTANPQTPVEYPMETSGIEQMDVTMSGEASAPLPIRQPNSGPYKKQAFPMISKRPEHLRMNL

SMILES | IC50 (p70S6K (T412E mutant); [1]) | IC50 (His-AKT (Full Length); [2]) | IC50 (p70S6K (T412E mutant); [3]) | IC50 (His-AKT (Full Length); [3])
CNC[C@@H](Nc1ncnc2c(C(N)=O)ccnc12)c1ccc(F)c(Br)c1 [Compound 28, 4-[(S)-1-(3-Bromo-4-fluoro-phenyl)-2-methylamino-ethylamino]-pyrido[3,2-d]pyrimidine-8-carboxylic Acid Amide] | < 25 nM | < 25 nM |  | 
CCNC[C@@H](Nc1ncnc2c(C(N)=O)ccnc12)c1ccc(C(F)(F)F)c(F)c1 [Compound 29, 4-[(S)-2-Ethylamino-1-(3-fluoro-4-trifluoromethyl-phenyl)-ethylamino]-pyrido[3,2-d]pyrimidine-8-carboxylic Acid Amide] | < 25 nM | 25 to 100 nM |  | 
CCNC[C@@H](Nc1ncnc2c(C(N)=O)ccnc12)c1cc(F)c(OC)cc1F [Compound 31, 4-[(S)-1-(2,5-Difluoro-4-methoxy-phenyl)-2-ethylamino-ethylamino]-pyrido[3,2-d]pyrimidine-8-carboxylic Acid Amide] | 25 to 100 nM | > 1000 nM |  | 
CNC[C@@H](Nc1ncnc2c(C(N)=O)ccnc12)c1cc(F)c(OC)cc1F [Compound 32, 4-[(S)-1-(2,5-Difluoro-4-methoxy-phenyl)-2-methylamino-ethylamino]-pyrido[3,2-d]pyrimidine-8-carboxylic Acid Amide] | < 25 nM | 101 to 500 nM |  | 
CCNC[C@@H](Nc1ncnc2c(C(N)=O)ccnc12)c1ccc(Cl)c(C(F)(F)F)c1 [Compound 33, 4-[(S)-1-(4-Chloro-3-trifluoromethyl-phenyl)-2-ethylamino-ethylamino]-pyrido[3,2-d]pyrimidine-8-carboxylic Acid Amide] | < 25 nM | 25 to 100 nM |  | 
CCNC[C@@H](Nc1ncnc2c(C(N)=O)ccnc12)c1cc(F)cc(C(F)(F)F)c1 [Compound 34, 4-[(S)-2-Ethylamino-1-(3-fluoro-5-trifluoromethyl-phenyl)-ethylamino]-pyrido[3,2-d]pyrimidine-8-carboxylic Acid Amide] | 25 to 100 nM | 101 to 500 nM |  | 
CNC[C@@H](Nc1ncnc2c(C(N)=O)ccnc12)c1cc(F)cc(C(F)(F)F)c1 [Compound 35, 4-[(S)-1-(3-Fluoro-5-trifluoromethyl-phenyl)-2-methylamino-ethylamino]-pyrido[3,2-d]pyrimidine-8-carboxylic Acid Amide] | < 25 nM | 25 to 100 nM |  | 
NC(=O)c1ccnc2c(N[C@H](CN3CCC3)c3ccc(Cl)cc3)ncnc12 [Compound 36, 4-[(S)-2-Azetidin-1-yl-1-(4-chloro-phenyl)-ethylamino]-pyrido[3,2-d]pyrimidine-8-carboxylic Acid Amide] | < 25 nM | 101 to 500 nM |  | 
CC(C)c1ccc([C@@H](CN2CCC2)Nc2ncnc3c(C(N)=O)ccnc23)cc1 [Compound 37, 4-[(S)-2-Azetidin-1-yl-1-(4-isopropyl-phenyl)-ethylamino]-pyrido[3,2-d]pyrimidine-8-carboxylic Acid Amide] | < 25 nM | 501 to 1000 nM |  | 
CNC[C@@H](Nc1ncnc2c(C(N)=O)ccnc12)c1ccc(C(F)(F)F)cc1 [Compound 38, 4-[(S)-2-Methylamino-1-(4-trifluoromethyl-phenyl)-ethylamino]-pyrido[3,2-d]pyrimidine-8-carboxylic Acid Amide] | < 25 nM | 25 to 100 nM |  | 
NC(=O)c1ccnc2c(N[C@H](CN3CCC3)c3ccc(Cl)c(C(F)(F)F)c3)ncnc12 [Compound 41, 4-[(S)-2-Azetidin-1-yl-1-(4-chloro-3-trifluoromethyl-phenyl)-ethylamino]-pyrido[3,2-d]pyrimidine-8-carboxamide] | < 25 nM | < 25 nM | 1.6 nM | 11 nM

Further lines, with some results ahead:

IC50 (p70S6K (T412E mutant); [1]) | IC50 (His-AKT (Full Length); [2]) | SMILES | IC50 (p70S6K (T412E mutant); [3]) | IC50 (His-AKT (Full Length); [3])
< 25 nM | 101 to 500 nM | CNC[C@@H](Nc1ncnc2c(C(N)=O)ccnc12)c1ccc(C(C)C)cc1 [Compound 39, 4-[(S)-1-(4-Isopropyl-phenyl)-2-methylamino-ethylamino]-pyrido[3,2-d]pyrimidine-8-carboxylic Acid Amide] |  | 
25 to 100 nM | > 1000 nM | CNC[C@@H](Nc1ncnc2c(C(N)=O)nccc12)c1ccc(C(C)C)cc1 [Compound 40, 4-[(S)-1-(4-Isopropyl-phenyl)-2-methylamino-ethylamino]-pyrido[3,4-d]pyrimidine-8-carboxylic Acid Amide] |  | 
< 25 nM | < 25 nM | CNC[C@@H](Nc1ncnc2c(C(N)=O)nccc12)c1ccc(Cl)c(C(F)(F)F)c1 [Compound 42, 4-[(S)-1-(4-Chloro-3-trifluoromethyl-phenyl)-2-methylamino-ethylamino]-pyrido[3,4-d]pyrimidine-8-carboxylic Acid Amide] |  | 
< 25 nM | < 25 nM | CNC[C@@H](Nc1ncnc2c(C(N)=O)ccnc12)c1ccc(C(F)(F)F)c(C(F)(F)F)c1 [Compound 43, 4-[(S)-1-(3,4-Bis-trifluoromethyl-phenyl)-2-methylamino-ethylamino]-pyrido[3,2-d]pyrimidine-8-carboxylamide] |  | 
< 25 nM | < 25 nM | CNC[C@@H](Nc1ncnc2c(C(N)=O)ccnc12)c1ccc(Cl)c(C)c1 [Compound 44, 4-[(S)-1-(4-Chloro-3-methyl-phenyl)-2-methylamino-ethylamino]-pyrido[3,2-d]pyrimidine-8-carboxylic Acid Amide] |  | 
< 25 nM | 25 to 100 nM | CNC[C@@H](Nc1ncnc2c(C(N)=O)ccnc12)c1ccc(Cl)cc1 [Compound 45, 4-[(S)-1-(4-Chloro-phenyl)-2-methylamino-ethylamino]-pyrido[3,2-d]pyrimidine-8-carboxylic Acid Amide] |  | 
< 25 nM | < 25 nM | Cc1cc([C@@H](CN2CCC2)Nc2ncnc3c(C(N)=O)ccnc23)ccc1Cl [Compound 46, 4-[(S)-2-Azetidin-1-yl-1-(4-chloro-3-methyl-phenyl)-ethylamino]-pyrido[3,2-d]pyrimidine-8-carboxylic Acid Amide] |  | 
< 25 nM | < 25 nM | CNC[C@@H](Nc1ncnc2c(C(N)=O)ccnc12)c1ccc(F)c(C(F)(F)F)c1 [Compound 49, 4-[(S)-1-(4-Fluoro-3-trifluoromethyl-phenyl)-2-methylamino-ethylamino]-pyrido[3,2-d]pyrimidine-8-carboxylic Acid Amide] |  | 
< 25 nM | 25 to 100 nM | CN(C)C[C@@H](Nc1ncnc2c(C(N)=O)ccnc12)c1ccc(F)c(C(F)(F)F)c1 [Compound 50, 4-[(S)-2-Dimethylamino-1-(4-fluoro-3-trifluoromethyl-phenyl)-ethylamino]-pyrido[3,2-d]pyrimidine-8-carboxylic Acid Amide] |  | 
< 25 nM | < 25 nM | CNC[C@@H](Nc1ncnc2c(C(N)=O)ccnc12)c1ccc(F)c(C(F)F)c1 [Compound 51, 4-[(S)-1-(3-Difluoromethyl-4-fluoro-phenyl)-2-methylamino-ethylamino]-pyrido[3,2-d]pyrimidine-8-carboxylic Acid Amide] |  | 
25 to 100 nM | 101 to 500 nM | CC(C)NC[C@@H](Nc1ncnc2c(C(N)=O)ccnc12)c1ccc(F)c(C(F)(F)F)c1 [Compound 52, 4-[(S)-1-(4-Fluoro-3-trifluoromethyl-phenyl)-2-isopropylamino-ethylamino]-pyrido[3,2-d]pyrimidine-8-carboxylic Acid Amide] |  | 
25 to 100 nM | 101 to 500 nM | CC(C)NC[C@@H](Nc1ncnc2c(C(N)=O)ccnc12)c1ccc(Cl)c(F)c1 [Compound 54, 4-[(S)-1-(4-Chloro-3-fluoro-phenyl)-2-isopropylamino-ethylamino]-pyrido[3,2-d]pyrimidine-8-carboxylic Acid Amide] |  | 
101 to 500 nM | 101 to 500 nM | CC(C)NC[C@@H](Nc1ncnc2c(C(N)=O)ccnc12)c1ccc(Cl)c(C(F)(F)F)c1 [Compound 55, 4-[(S)-1-(4-Chloro-3-trifluoromethyl-phenyl)-2-isopropylamino-ethylamino]-pyrido[3,2-d]pyrimidine-8-carboxylic Acid Amide] |  | 
< 25 nM | 25 to 100 nM | CCNC[C@@H](Nc1ncnc2c(C(N)=O)ccnc12)c1ccc(F)c(C(F)(F)F)c1 [Compound 56, 4-[(S)-2-Ethylamino-1-(4-fluoro-3-trifluoromethyl-phenyl)-ethylamino]-pyrido[3,2-d]pyrimidine-8-carboxylic Acid Amide] |  | 
